Read-outs that look alike come from different tables or passages of the source.
What was measured:
[1] = test system: human stomach cancer cell line SNU-16 xenograft; assay: Antitumor effect in SNU-16 subcutaneous xenograft model in mice; type: in vivo; conditions: oral, once a day for 11 days, tumor volume last day
Source text: Human stomach cancer cell line SNU-16, which had been cultured in an RPMI-1640 medium containing 10% FBS, and penicillin and streptomycin, were adjusted to a concentration of 1×10^8 cells/mL with Hanks' Balanced Salt Solution (GIBCO #24020) to prepare a cell suspension, and the suspension was mixed with […] (BD Biosciences, Cat#354234) in a ratio of 1:1 to prepare a cell suspension in a concentration of 5×10^7 cells/ml. The cell suspension was inoculated in a volume of 100 ut into a subcutaneous part of a right flank of nude mice, 6 to 7 weeks of ages (BALB/cAiel-nu/nu, female, Clea Japan Inc.). Seven days after cell inoculation, the shortest diameter and the longest diameter of a tumor in each mouse were measured by using an electronic digital caliper (Digimatie™ caliper, Mitutoyo Corporation), so as to calculate the volume of the tumor in accordance with the following calculation formula: Tumor volume(mm^3)Longest diameter(mm)×Shortest diameter(mm)×Shortest diameter(mm)/2
On the basis of the volumes of tumors obtained on the first day of administration, the nude mice were grouped such that averages of the tumor volumes were substantially equal among the groups. Each test substance was dissolved in DMSO, Tween 80 was added thereto to prepare a solution in a 10-fold concentration and the thus prepared solution was stored at the freezer before use. Immediately before the administration, the stock solution was diluted with a 5% glucose solution to obtain a final administration solution (in which a ratio in % among DMSO, Tween 80 and the 5% glucose solution was 3.5:6.5:90). Each evaluation sample was orally administered to test substance administration group at a volume of 0.4 mL per 20 g of body weight once a day continuously for 11 days, and in a control group, an administration solvent was orally administered under the same conditions. Incidentally, the experiment was conducted on groups each consisting of 5 mice.
With respect to each of the control group and test substance administration group, a ratio of the weight measured on the final day to the weight measured on the first day (relative body weight: RBW) was calculated. If a ratio of the RBW of the test substance administration group/the RBW of the control group is 0.9 or mom, the corresponding test substance administration group was defined as a well-tolerated. In the test substance administration group thus defined as well-tolerated, a ratio of the tumor volume of the test substance-dosing group to the tumor volume of the control group obtained on the last day (TIC) (%) was calculated, and shown in Table 21.

[2] = test system: normal human umbilical vein endothelial cells (HUVEC); assay: HUVEC growth inhibition assay (VEGF-induced); type: cell-based
Experimental: The absorbance value was measured with ENVISION™ (PerkinElmer Co., Ltd.) at 450 nm. The absorbance values of the wells without adding the test substance but with VEGF addition was defined as 100% and the absorbance values of the wells with neither the test substance nor VEGF addition was defined as 0%.

[3] = test system: human stomach cancer cell line SNU-16 (FGFR2 gene amplification); assay: SNU-16 growth inhibition assay; type: cell-based
Experimental: In this assay, the growth inhibitory activity of a test substance in a human stomach cancer cell line harboring FGFR2 gene amplification is measured.
Then, 10 μL of Cell Counting Kit-8 (Dojindo Laboratories, CK04) was added to each well, and the resultant was incubated for 1 to 2 hours in a 5% CO2 incubator (37° C.) to cause a color reaction. The absorbance value was measured with ENVISION™ (PerkinElmer Co., Ltd.) at 450 nm.

[4] = Homo sapiens, HUVEC, 72 h, read-out: HUVEC (IC50 (nM)), growth in the presence of VEGF 10 ng/mL, 3 days
[5] = Homo sapiens, SNU-16, 72 h, read-out: SNU-16 (IC50 (nM)), cell growth, 3 days, Cell Counting Kit-8

Compound | IC50 [2, 4] [nM] | IC50 [3, 5] [nM] | other results
CNC(=O)n1ccc2cc(Oc3ccnc(NC(=O)c4ccc(CN5CCC(O)CC5)cc4)c3)c(OC)cc21 [Example 9, 5-((2-(4-((4-Hydroxypiperidin-1-yl)methyl)benzamide)pyridin-4-yl)oxy)-6-methoxy-N-methyl-1H-indole-1-carboxamide] |  |  | T/C (%) ([1]; 25 mg/kg): 55%; T/C (%) ([1]; 50 mg/kg): 39%; T/C (%) ([1]; 100 mg/kg): 30%
CCOCCOc1cc2c(ccn2C(=O)NC)cc1Oc1ccnc(NC(=O)c2ccc(C3CN(CC)C3)cc2)c1 [Example 26, 6-(2-Ethoxyethoxy)-5-((2-(4-(1-ethylazetidin-3-yl)benzamide)pyridin-4-yl)oxy)-N-methyl-1H-indole-1-carboxamide] | 258 | 5.6 | T/C (%) ([1]; 6.25 mg/kg): 45%; T/C (%) ([1]; 12.5 mg/kg): 36%; T/C (%) ([1]; 25 mg/kg): 22%; T/C (%) ([1]; 50 mg/kg): 27%
CCOCCOc1cc2c(ccn2C(=O)NC)cc1Oc1ccnc(NC(=O)c2ccc(C3CCN(CCO)CC3)cc2)c1 [Example 25, 6-(2-Ethoxyethoxy)-5-((2-(4-(1-(2-hydroxyethyl)piperidin-4-yl)benzamide)pyridin-4-yl)oxy)-N-methyl-1H-indole-1-carboxamide] | 191 | 3.8 | T/C (%) ([1]; 6.25 mg/kg): 31%; T/C (%) ([1]; 12.5 mg/kg): 23%; T/C (%) ([1]; 25 mg/kg): 14%; T/C (%) ([1]; 50 mg/kg): 12%
CNC(=O)n1ccc2cc(Oc3ccnc(NC(=O)c4ccc(C5CCN(C[C@H](C)O)CC5)cc4)c3)c(OC)cc21 [Example 4, (S)-5-((2-(4-(1-(2-Hydroxypropyl)piperidin-4-yl)benzamide)pyridin-4-yl)oxy)-6-methoxy-N-methyl-1H-indole-1-carboxamide] |  |  | T/C (%) ([1]; 6.25 mg/kg): 40%; T/C (%) ([1]; 12.5 mg/kg): 27%; T/C (%) ([1]; 25 mg/kg): 15%
CNC(=O)n1ccc2cc(Oc3ccnc(NC(=O)c4ccc(CN5CCC(O)CC5)cc4)c3)c(OCCOC)cc21 [Example 93] | 887 | 17.6 | 
CNC(=O)n1ccc2cc(Oc3ccnc(NC(=O)c4ccc(C5CCN(C)CC5)cc4)c3)c(OCCCF)cc21 [Example 76] | 248 | 7.5 | 
CCOCCOc1cc2c(ccn2C(=O)NC)cc1Oc1ccnc(NC(=O)c2ccc(CN3CCC(O)CC3)cc2)c1 [Example 115] | 616 | 11.4 | 
CCOc1cc2c(ccn2C(=O)NC)cc1Oc1ccnc(NC(=O)c2ccc(CN3CCC(O)CC3)cc2)c1 [Example 65] | 575 | 23.6 | 
CNC(=O)n1ccc2cc(Oc3ccnc(NC(=O)c4ccc(CN5CCC(O)CC5)s4)c3)c(OCCOC)cc21 [Example 86] | 250 | 6.2 | 
CNC(=O)n1ccc2cc(Oc3ccnc(NC(=O)c4ccc(C5CCN(C[C@H](C)O)CC5)cc4)c3)c(OCCCOC)cc21 [Example 126] | 197 | 6.6 | 
CNC(=O)n1ccc2cc(Oc3ccnc(NC(=O)c4ccc(C5CCN(CCO)CC5)cc4)c3)c(OC)cc21 [Example 3, 5-((2-(4-(1-(2-Hydroxyethyl)piperidin-4-yl)benzamide)pyridin-4-yl)oxy)-6-methoxy-N-methyl-1H-indole-1-carboxamide] |  |  | T/C (%) ([1]; 6.25 mg/kg): 45%; T/C (%) ([1]; 12.5 mg/kg): 27%; T/C (%) ([1]; 25 mg/kg): 19%
CNC(=O)n1ccc2cc(Oc3ccnc(NC(=O)c4ccc(CN5CCC[C@H]5CO)cc4)c3)c(OCCCOC)cc21 [Example 117] | 534 | 16.6 | 
CCOCCOc1cc2c(ccn2C(=O)NC)cc1Oc1ccnc(NC(=O)c2ccc(C3CN(C)C3)cc2)c1 [Example 102] |  |  | IC50 ([2]; read-out: HUVEC (IC50 (nM)), growth in the presence of VEGF 10 ng/mL, 3 days): 226 nM; IC50 ([3]; read-out: SNU-16 (IC50 (nM)), cell growth, 3 days, Cell Counting Kit-8): 3.7 nM
CNC(=O)n1ccc2cc(Oc3ccnc(NC(=O)c4ccc(C5(F)CCNCC5)cc4)c3)c(OC)cc21 [Example 7, 5-((2-(4-(4-Fluoropiperidin-4-yl)benzamide)pyridin-4-yl)oxy)-6-methoxy-N-methyl-1H-indole-1-carboxamide] | 205 | 9.6 | 
CNC(=O)n1ccc2cc(Oc3ccnc(NC(=O)c4ccc(C5CCN(C[C@@H](C)O)CC5)cc4)c3)c(OC)cc21 [Example 54] | 86.7 | 6.4 | 
CCN1CCC(c2ccc(C(=O)Nc3cc(Oc4cc5ccn(C(=O)NC)c5cc4OCCOC)ccn3)cc2)CC1 [Example 92] | 182 | 5.8 | 
CNC(=O)n1ccc2cc(Oc3ccnc(NC(=O)c4ccc(C5CCN(C(C)C)CC5)cc4)c3)c(OCCOC)cc21 [Example 23, 5-((2-(4-(1-Isopropylpiperidin-4-yl)benzamide)pyridin-4-yl)oxy)-6-(2-methoxyethoxy)-N-methyl-1H-indole-1-carboxamide] | 300 | 6.5 | 
CNC(=O)n1ccc2cc(Oc3ccnc(NC(=O)c4ccc(N5CCC(N6CCCC6)CC5)cc4)c3)c(OC)cc21 [Example 8, 6-Methoxy-N-methyl-5-((2-(4-(4-(pyrrolidin-1-yl)piperidin-1-yl)benzamide)pyridin-4-yl)oxy)-1H-indole-1-carboxamide] | 140 | 15.4 | 
CCOCCOc1cc2c(ccn2C(=O)NC)cc1Oc1ccnc(NC(=O)c2ccc(CN3CCC(O)CC3)s2)c1 [Example 101] | 182 | 6.8 | 
CNC(=O)n1ccc2cc(Oc3ccnc(NC(=O)c4ccc(C5CCN(C(C)C)CC5)nc4)c3)c(OCCOC)cc21 [Example 77] | 1030 | 9.6 | 
CCOCCOc1cc2c(ccn2C(=O)NC)cc1Oc1ccnc(NC(=O)c2ccc(C3CN(CCO)C3)cc2)c1 [Example 27, 6-(2-Ethoxyethoxy)-5-((2-(4-(1-(2-hydroxyethyl)azetidin-3-yl)benzamide)pyridin-4-yl)oxy)-N-methyl-1H-indole-1-carboxamide] | 218 | 6.2 | 
CCN1CCC(Oc2ccc(C(=O)Nc3cc(Oc4cc5ccn(C(=O)NC)c5cc4OC)ccn3)cc2)CC1 [Example 43] | 166 | 11.8 | 
CCOCCOc1cc2c(ccn2C(=O)NC)cc1Oc1ccnc(NC(=O)c2ccc(CN3CCC[C@@H]3CO)s2)c1 [Example 98] | 228 | 6.3 | 
CNC(=O)n1ccc2cc(Oc3ccnc(NC(=O)c4ccc(C5CCN(C[C@@H](C)O)CC5)cc4)c3)c(OCCOC)cc21 [Example 90] | 203 | 6.1 | 
CNC(=O)n1ccc2cc(Oc3ccnc(NC(=O)c4ccc(CN5CC[C@@H](O)C5)cc4)c3)c(OC)cc21 [Example 53] | 401 | 14.5 | 
CNC(=O)n1ccc2cc(Oc3ccnc(NC(=O)c4ccc(C5CCN(C)CC5)cc4)c3)c(OC)cc21 [Example 57] | 127 | 7.6 | 
CCOc1cc2c(ccn2C(=O)NC)cc1Oc1ccnc(NC(=O)c2ccc(N3CCC(N4CCCC4)CC3)cc2)c1 [Example 62] | 223 | 27.4 | 
CCOCCOc1cc2c(ccn2C(=O)NC)cc1Oc1ccnc(NC(=O)c2ccc(C3CN(C(C)C)C3)cc2)c1 [Example 103] | 296 | 5.4 | 

Reference: patent US8933099B2, “Monocyclic pyridine derivative” (Eisai R&D Management Co., Ltd., priority 2013, dated 2015)
